Test results reported in patent US9938322B2, “β-hairpin peptidomimetics” (priority 2013, dated 2018).
*1 amine or outer side, *2 acyl side, *3 side chain or, on linkers, in order; H or OH if unused. Where a SMILES comes first, the peptide text is derived from it. Side-chain parts run from the residue outwards. [ ]: non-standard residue; d: D form. The star is where a group is joined. Pro(3S-OH) = O=C(O)[C@H]1NCC[C@@H]1O; Dap(CONH2) = NC(=O)NC[C@H](N)C(=O)O; X1 = CC(C)NC[C@H](N[*:1])C(=O)[*:2]; Cha = N[C@@H](CC1CCCCC1)C(=O)O; NH(3-picolyl) = c1cncc(CN*)c1; Chg = N[C@H](C(=O)O)C1CCCCC1; Tle = CC(C)(C)[C@H](N)C(=O)O; dDab = NCC[C@@H](N)C(=O)O; hSer = N[C@@H](CCO)C(=O)O; Orn = NCCC[C@H](N)C(=O)O; Dab = NCC[C@H](N)C(=O)O; Nva = CCC[C@H](N)C(=O)O; Dap = NC[C@H](N)C(=O)O; CO = O=C([*:1])[*:2]; NHiPr = CC(C)N*

Each compound was assayed on human red blood cells (hRBC) (assay: Hemolysis of human red blood cells). Conditions: red cells of human, 1 h, 100.
Type: cell-based
How it was run: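 Washed fresh human erythrocytes (20% v/v, about 0.9×10^9 cells/ml final) incubated with peptide at 100 μg/ml for 1 h at 37° C with shaking. Supernatant OD540 read; hemolysis expressed relative to 2.5% Triton X-100 (100%) and PBS with 0.001% acetic acid (0%).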

Row | Structure (SMILES) | Hemolysis at 100 μg/ml [%]
1 | CCC[C@@H]1NC(=O)[C@@H]2CCCN2C(=O)[C@H]2CCCN2C(=O)[C@H](CO)NC(=O)[C@H](C)NC(=O)[C@H](CC2CCCCC2)NC(=O)[C@H](CCN)NC(=O)[C@H](Cc2c[nH]c3ccccc23)NC(=O)[C@H](CCN)NC(=O)[C@@H](CCN)NC(=O)[C@H](CCCN)NC(=O)[C@H](CCN)NC(=O)[C@H](Cc2ccc(O)cc2)NC(=O)[C@H](CO)NC1=O [compound 93] (cyclo([Nva]SY[Dab][Orn][dDab][Dab]W[Dab][Cha]AS[dP]P)) | 5
2 | C[C@@H]1NC(=O)[C@H](Cc2c[nH]c3ccccc23)NC(=O)[C@@H]2[C@@H](O)CCN2C(=O)[C@H]2CCCN2C(=O)[C@H](CO)NC(=O)[C@H](CO)NC(=O)[C@H](C(C)(C)C)NC(=O)[C@H](CCN)NC(=O)[C@H](Cc2c[nH]c3ccccc23)NC(=O)[C@H](CCN)NC(=O)[C@@H](CCN)NC(=O)[C@H](CCCN)NC(=O)[C@H](CCN)NC(=O)[C@H](C2CCCCC2)NC1=O [compound 65] (cyclo(WA[Chg][Dab][Orn][dDab][Dab]W[Dab][Tle]SS[dP][Pro(3S-OH)])) | 3.5
3 | CC(C)NC(=O)NC[C@@H]1NC(=O)[C@H](Cc2c[nH]c3ccccc23)NC(=O)[C@@H]2CCCN2C(=O)[C@H]2CCCN2C(=O)[C@H](CO)NC(=O)[C@H](C)NC(=O)[C@H](C(C)(C)C)NC(=O)[C@H](CCN)NC(=O)[C@H](Cc2c[nH]c3ccccc23)NC(=O)[C@H](CCN)NC(=O)[C@@H](CCN)NC(=O)[C@H](CCCN)NC(=O)[C@H](CCN)NC(=O)[C@H](CC2CCCCC2)NC1=O [compound 17] (cyclo(W[Dap]([CO-NHiPr])[Cha][Dab][Orn][dDab][Dab]W[Dab][Tle]AS[dP]P)) | 6
4 | CC(C)C[C@@H]1NC(=O)[C@@H]2CCCN2C(=O)[C@H]2CCCN2C(=O)[C@H](CO)NC(=O)[C@H](CC(=O)O)NC(=O)[C@H](C(C)(C)C)NC(=O)[C@H](CCN)NC(=O)[C@H](Cc2c[nH]c3ccccc23)NC(=O)[C@H](CCN)NC(=O)[C@@H](CCN)NC(=O)[C@H](CCCN)NC(=O)[C@H](CCN)NC(=O)[C@H](Cc2ccc(O)cc2)NC(=O)[C@H](CCN)NC1=O [compound 159] (cyclo(L[Dab]Y[Dab][Orn][dDab][Dab]W[Dab][Tle]DS[dP]P)) | 1
5 | C[C@@H]1NC(=O)[C@H](C(C)(C)C)NC(=O)[C@H](CCN)NC(=O)[C@H](Cc2c[nH]c3ccccc23)NC(=O)[C@H](CCN)NC(=O)[C@@H](CCN)NC(=O)[C@H](CCCN)NC(=O)[C@H](CCN)NC(=O)[C@H](Cc2ccc(O)cc2)NC(=O)[C@H](CO)NC(=O)[C@H]([C@@H](C)O)NC(=O)[C@@H]2CCCN2C(=O)[C@H]2CCCN2C(=O)[C@H](Cc2ccc(O)cc2)NC1=O [compound 158] (cyclo(TSY[Dab][Orn][dDab][Dab]W[Dab][Tle]AY[dP]P)) | 1
6 | CC(C)C[C@@H]1NC(=O)[C@@H]2CCCN2C(=O)[C@H]2CCCN2C(=O)[C@H](CO)NC(=O)[C@H](C)NC(=O)[C@H](C(C)(C)C)NC(=O)[C@H](CCN)NC(=O)[C@H](Cc2c[nH]c3ccccc23)NC(=O)[C@H](CCN)NC(=O)[C@@H](CCN)NC(=O)[C@H](CN)NC(=O)[C@H](CCN)NC(=O)[C@H](Cc2ccc(O)cc2)NC(=O)[C@H](CO)NC1=O [compound 95] (cyclo(LSY[Dab][Dap][dDab][Dab]W[Dab][Tle]AS[dP]P)) | 1
7 | CCC[C@@H]1NC(=O)[C@@H]2CCCN2C(=O)[C@H]2CCCN2C(=O)[C@H](CO)NC(=O)[C@H](C)NC(=O)[C@H](C2CCCCC2)NC(=O)[C@H](CCN)NC(=O)[C@H](Cc2c[nH]c3ccccc23)NC(=O)[C@H](CCN)NC(=O)[C@@H](CCN)NC(=O)[C@H](CCCN)NC(=O)[C@H](CCN)NC(=O)[C@H](Cc2ccc(O)cc2)NC(=O)[C@H](CO)NC1=O [compound 89] (cyclo([Nva]SY[Dab][Orn][dDab][Dab]W[Dab][Chg]AS[dP]P)) | 0
8 | CC(C)NC[C@@H]1NC(=O)[C@H](Cc2c[nH]c3ccccc23)NC(=O)[C@@H]2CCCN2C(=O)[C@H]2CCCN2C(=O)[C@H](CO)NC(=O)[C@H](C)NC(=O)[C@H](C(C)(C)C)NC(=O)[C@H](CCO)NC(=O)[C@H](Cc2c[nH]c3ccccc23)NC(=O)[C@H](CCN)NC(=O)[C@@H](CCN)NC(=O)[C@H](CCCN)NC(=O)[C@H](CCN)NC(=O)[C@H](CC2CCCCC2)NC1=O [compound 9] (cyclo(W[X1][Cha][Dab][Orn][dDab][Dab]W[hSer][Tle]AS[dP]P)) | 2
9 | C[C@@H]1NC(=O)[C@H](Cc2c[nH]c3ccccc23)NC(=O)[C@@H]2CCCN2C(=O)[C@H]2CCCN2C(=O)[C@H](CO)NC(=O)[C@H](C)NC(=O)[C@H](C(C)(C)C)NC(=O)[C@H](CCN)NC(=O)[C@H](Cc2c[nH]c3ccccc23)NC(=O)[C@H](CCN)NC(=O)[C@@H](CCN)NC(=O)[C@H](CCCN)NC(=O)[C@H](CCN)NC(=O)[C@H](C2CCCCC2)NC1=O [compound 3] (cyclo(WA[Chg][Dab][Orn][dDab][Dab]W[Dab][Tle]AS[dP]P)) | 2.5
10 | CC(C)C[C@@H]1NC(=O)[C@@H]2CCCN2C(=O)[C@H]2CCCN2C(=O)[C@H](CO)NC(=O)[C@H](CO)NC(=O)[C@H](C(C)(C)C)NC(=O)[C@H](CCN)NC(=O)[C@H](Cc2c[nH]c3ccccc23)NC(=O)[C@H](CCN)NC(=O)[C@@H](CCN)NC(=O)[C@H](CCCN)NC(=O)[C@H](CCN)NC(=O)[C@H](Cc2ccc(O)cc2)NC(=O)[C@H](CO)NC1=O [compound 117] (cyclo(LSY[Dab][Orn][dDab][Dab]W[Dab][Tle]SS[dP]P)) | 3
11 | CC[C@H](C)[C@@H]1NC(=O)[C@@H]2CCCN2C(=O)[C@H]2CCCN2C(=O)[C@H]([C@@H](C)O)NC(=O)[C@H]([C@@H](C)O)NC(=O)[C@H](C(C)(C)C)NC(=O)[C@H](CCN)NC(=O)[C@H](Cc2c[nH]c3ccccc23)NC(=O)[C@H](CCN)NC(=O)[C@@H](CCN)NC(=O)[C@H](CCN)NC(=O)[C@H](CCN)NC(=O)[C@H](Cc2ccc(O)cc2)NC(=O)[C@H](C)NC1=O [compound 133] (cyclo(IAY[Dab][Dab][dDab][Dab]W[Dab][Tle]TT[dP]P)) | 1
12 | C[C@@H]1NC(=O)[C@H](CC2CCCCC2)NC(=O)[C@H](CCN)NC(=O)[C@H](Cc2c[nH]c3ccccc23)NC(=O)[C@H](CCN)NC(=O)[C@@H](CCN)NC(=O)[C@H](CCCN)NC(=O)[C@H](CCN)NC(=O)[C@H](C(C)(C)C)NC(=O)[C@H](CO)NC(=O)[C@H](Cc2ccc(O)cc2)NC(=O)[C@@H]2CCCN2C(=O)[C@H]2CCCN2C(=O)[C@H](CO)NC1=O [compound 66] (cyclo(YS[Tle][Dab][Orn][dDab][Dab]W[Dab][Cha]AS[dP]P)) | 4
13 | CC(C)[C@@H]1NC(=O)[C@@H]2CCCN2C(=O)[C@H]2CCCN2C(=O)[C@H](CO)NC(=O)[C@H](C)NC(=O)[C@H](C(C)(C)C)NC(=O)[C@H](CCN)NC(=O)[C@H](Cc2c[nH]c3ccccc23)NC(=O)[C@H](CCN)NC(=O)[C@@H](CCN)NC(=O)[C@H](CCCN)NC(=O)[C@H](CCN)NC(=O)[C@H](Cc2ccc(O)cc2)NC(=O)[C@H](CO)NC1=O [compound 45] (cyclo(VSY[Dab][Orn][dDab][Dab]W[Dab][Tle]AS[dP]P)) | 2
14 | CC(C)C[C@@H]1NC(=O)[C@@H]2[C@@H](O)CCN2C(=O)[C@H]2CCCN2C(=O)[C@H](CO)NC(=O)[C@H](CNC(N)=O)NC(=O)[C@H](C(C)(C)C)NC(=O)[C@H](CCN)NC(=O)[C@H](Cc2c[nH]c3ccccc23)NC(=O)[C@H](CCN)NC(=O)[C@@H](CCN)NC(=O)[C@H](CCCN)NC(=O)[C@H](CCN)NC(=O)[C@H](CC2CCCCC2)NC(=O)[C@H](C)NC1=O [compound 60] (cyclo(LA[Cha][Dab][Orn][dDab][Dab]W[Dab][Tle][Dap(CONH2)]S[dP][Pro(3S-OH)])) | 1
15 | CC(C)C[C@@H]1NC(=O)[C@@H]2CCCN2C(=O)[C@H]2CCCN2C(=O)[C@H](CO)NC(=O)[C@H](C)NC(=O)[C@H](C(C)C)NC(=O)[C@H](CCN)NC(=O)[C@H](Cc2c[nH]c3ccccc23)NC(=O)[C@H](CCN)NC(=O)[C@@H](CCN)NC(=O)[C@H](CCCN)NC(=O)[C@H](CCN)NC(=O)[C@H](CC2CCCCC2)NC(=O)[C@H](CO)NC1=O [compound 140] (cyclo(LS[Cha][Dab][Orn][dDab][Dab]W[Dab]VAS[dP]P)) | 2
16 | CCC[C@@H]1NC(=O)[C@H](CCN)NC(=O)[C@H](Cc2c[nH]c3ccccc23)NC(=O)[C@H](CCN)NC(=O)[C@@H](CCN)NC(=O)[C@H](CCCN)NC(=O)[C@H](CCN)NC(=O)[C@H](C(C)(C)C)NC(=O)[C@H](CO)NC(=O)[C@H](Cc2c[nH]c3ccccc23)NC(=O)[C@@H]2CCCN2C(=O)[C@H]2CCCN2C(=O)[C@H](CO)NC(=O)[C@H](C)NC1=O [compound 67] (cyclo(WS[Tle][Dab][Orn][dDab][Dab]W[Dab][Nva]AS[dP]P)) | 1
17 | CC(C)C[C@@H]1NC(=O)[C@@H]2CCCN2C(=O)[C@H]2CCCN2C(=O)[C@H](CO)NC(=O)[C@H](C)NC(=O)[C@H](C(C)(C)C)NC(=O)[C@H](CCN)NC(=O)[C@H](Cc2c[nH]c3ccccc23)NC(=O)[C@H](CCN)NC(=O)[C@@H](CCN)NC(=O)[C@H](CCCN)NC(=O)[C@H](CCN)NC(=O)[C@H](CC2CCCCC2)NC(=O)[C@H](CNC(=O)NCc2cccnc2)NC1=O [compound 39] (cyclo(L[Dap]([CO-NH(3-picolyl)])[Cha][Dab][Orn][dDab][Dab]W[Dab][Tle]AS[dP]P)) | 3
18 | C[C@@H]1NC(=O)[C@H](C(C)(C)C)NC(=O)[C@H](CCN)NC(=O)[C@H](Cc2c[nH]c3ccccc23)NC(=O)[C@H](CCN)NC(=O)[C@@H](CCN)NC(=O)[C@H](CCCN)NC(=O)[C@H](CCN)NC(=O)[C@H](CC2CCCCC2)NC(=O)[C@H](CN)NC(=O)[C@H](Cc2c[nH]c3ccccc23)NC(=O)[C@@H]2CCCN2C(=O)[C@H]2CCCN2C(=O)[C@H](CO)NC1=O [Ex. 10] (cyclo(W[Dap][Cha][Dab][Orn][dDab][Dab]W[Dab][Tle]AS[dP]P)) | 3.5
